{
  "source": "patent US20020090388A1",
  "about": "“Intravascular drug delivery device and use therefor” (priority 2000, published 2002)",
  "origin": "cited, not measured here",
  "system": "primary pulmonary hypertension",
  "conditions": "patients with primary pulmonary hypertension",
  "data": [
    {"molecule": "CC#CCC(C)[C@H](O)/C=C/[C@@H]1[C@H]2C/C(=C/CCCC(=O)O)C[C@H]2C[C@H]1O", "note": "(stereo partly shown) [Iloprost]", "values": [
      {"measurement": "mean level of dose required to provide significant therapeutic benefits", "result": 2.1, "unit": "ng/kg/min"}
    ]}
  ]
}
